Measured values as given in paper PMC3208124 (Journal of medicinal chemistry, 2011).

Assays:
[1] = tested on: Plasmodium falciparum 3D7 (drug sensitive) strain; experiment: Growth inhibition of P. falciparum 3D7 in erythrocytic co-culture; format: cell-based; settings: 3D7, read-out: EC50 3D7
[2] = tested on: Plasmodium falciparum K1 (drug resistant) strain; experiment: Growth inhibition of P. falciparum K1 in erythrocytic co-culture; format: cell-based; settings: K1, read-out: EC50 K1

**Q.** How did the EC50 [1] turn out when `O=C(CCc1ccccc1)c1ccccc1OCC(O)CN1CCN(C(c2ccccc2)c2ccccc2)CC1` (centres unmarked) [Compound 6z] was run?
**A.** Its EC50 is no more than 100 nM.

**Q.** And the EC50 [2]?
**A.** Its EC50 is no more than 100 nM.
